Values joined by “and” are separate entries in the source; they are usually repeats but may differ in a detail not shown here. Equal values may be shown once.
Columns and labels:
[1] = target: T1, Muscarinic acetylcholine receptor M1 (Homo sapiens, UniProt P11229); format: functional, cell-based
T1 sequence (P11229 whole entry): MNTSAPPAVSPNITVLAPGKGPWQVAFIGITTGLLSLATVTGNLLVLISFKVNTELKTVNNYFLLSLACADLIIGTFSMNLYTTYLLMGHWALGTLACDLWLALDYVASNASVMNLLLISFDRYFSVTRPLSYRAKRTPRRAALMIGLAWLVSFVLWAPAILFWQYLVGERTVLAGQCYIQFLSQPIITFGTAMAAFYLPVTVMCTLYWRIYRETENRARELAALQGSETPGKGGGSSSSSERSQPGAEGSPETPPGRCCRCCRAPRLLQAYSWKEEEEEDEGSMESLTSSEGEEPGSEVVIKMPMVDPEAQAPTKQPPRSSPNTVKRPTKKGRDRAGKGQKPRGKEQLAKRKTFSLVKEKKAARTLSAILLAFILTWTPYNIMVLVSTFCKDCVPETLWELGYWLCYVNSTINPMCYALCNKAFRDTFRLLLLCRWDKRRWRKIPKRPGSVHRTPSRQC

[2] = target: T2, Alpha-1A adrenergic receptor (Homo sapiens, UniProt P35348); format: functional, cell-based
T2 sequence (P35348 whole entry): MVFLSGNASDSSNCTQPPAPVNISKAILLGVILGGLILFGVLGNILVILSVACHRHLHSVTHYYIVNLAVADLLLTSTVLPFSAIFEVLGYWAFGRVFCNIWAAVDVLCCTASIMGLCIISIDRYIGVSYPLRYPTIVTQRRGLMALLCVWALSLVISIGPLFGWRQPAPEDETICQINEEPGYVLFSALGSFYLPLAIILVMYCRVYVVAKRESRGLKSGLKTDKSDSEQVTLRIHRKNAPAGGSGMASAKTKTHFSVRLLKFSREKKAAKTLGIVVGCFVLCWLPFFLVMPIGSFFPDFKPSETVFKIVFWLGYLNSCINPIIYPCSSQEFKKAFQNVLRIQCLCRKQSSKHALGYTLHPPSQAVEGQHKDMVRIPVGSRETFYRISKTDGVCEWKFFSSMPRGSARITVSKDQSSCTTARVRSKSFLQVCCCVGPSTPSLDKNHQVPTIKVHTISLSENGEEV

[3] = target: T3, 5-hydroxytryptamine receptor 1A (Homo sapiens, UniProt P08908); format: functional, cell-based
T3 sequence (P08908 whole entry): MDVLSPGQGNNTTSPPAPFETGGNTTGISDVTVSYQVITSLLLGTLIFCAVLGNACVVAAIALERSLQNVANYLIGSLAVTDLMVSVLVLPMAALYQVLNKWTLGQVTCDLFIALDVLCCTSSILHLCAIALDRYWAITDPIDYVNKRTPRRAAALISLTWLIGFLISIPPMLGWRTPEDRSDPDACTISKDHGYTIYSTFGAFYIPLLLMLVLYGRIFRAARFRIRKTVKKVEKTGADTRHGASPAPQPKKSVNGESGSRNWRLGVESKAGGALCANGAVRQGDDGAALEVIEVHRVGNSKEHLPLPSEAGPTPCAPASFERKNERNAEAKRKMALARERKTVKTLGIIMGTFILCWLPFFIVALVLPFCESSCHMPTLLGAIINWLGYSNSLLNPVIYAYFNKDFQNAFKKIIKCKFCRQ

[4] = target: T4, Alpha-2A adrenergic receptor (Homo sapiens, UniProt P08913); format: functional, cell-based
T4 sequence (P08913 whole entry): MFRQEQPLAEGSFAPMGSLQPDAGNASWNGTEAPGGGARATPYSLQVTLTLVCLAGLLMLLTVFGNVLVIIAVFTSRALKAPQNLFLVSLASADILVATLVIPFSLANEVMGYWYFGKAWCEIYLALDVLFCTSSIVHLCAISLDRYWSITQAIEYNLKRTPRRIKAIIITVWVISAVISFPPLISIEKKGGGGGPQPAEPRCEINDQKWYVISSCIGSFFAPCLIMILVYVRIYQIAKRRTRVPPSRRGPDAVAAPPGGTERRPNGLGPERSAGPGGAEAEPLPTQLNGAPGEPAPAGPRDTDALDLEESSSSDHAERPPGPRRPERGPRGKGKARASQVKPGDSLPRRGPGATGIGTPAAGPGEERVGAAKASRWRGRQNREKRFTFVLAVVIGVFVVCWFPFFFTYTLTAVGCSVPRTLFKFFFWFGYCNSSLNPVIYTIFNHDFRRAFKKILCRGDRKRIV

[5] = target: T2, Alpha-1A adrenergic receptor; format: functional, cell-based; remark: listed apart in the source
[6] = target: T5, 5-hydroxytryptamine receptor 2C (Homo sapiens, UniProt P28335)
T5 sequence (P28335 whole entry): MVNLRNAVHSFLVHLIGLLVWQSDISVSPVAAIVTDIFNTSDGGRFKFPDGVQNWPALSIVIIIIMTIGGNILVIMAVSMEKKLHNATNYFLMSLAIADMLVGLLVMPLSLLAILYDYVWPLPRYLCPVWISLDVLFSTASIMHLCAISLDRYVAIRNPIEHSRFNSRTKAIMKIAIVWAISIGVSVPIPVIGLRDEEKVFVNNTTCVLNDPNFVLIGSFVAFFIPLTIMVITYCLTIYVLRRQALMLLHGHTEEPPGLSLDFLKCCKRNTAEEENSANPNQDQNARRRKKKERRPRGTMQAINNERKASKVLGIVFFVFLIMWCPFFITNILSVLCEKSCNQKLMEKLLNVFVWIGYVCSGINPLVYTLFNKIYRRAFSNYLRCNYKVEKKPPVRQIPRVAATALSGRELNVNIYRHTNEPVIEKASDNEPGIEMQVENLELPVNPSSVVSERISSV

Endothelin-1 receptor = target: T6, Endothelin-1 receptor (Homo sapiens, UniProt P25101)
T6 sequence (P25101 whole entry): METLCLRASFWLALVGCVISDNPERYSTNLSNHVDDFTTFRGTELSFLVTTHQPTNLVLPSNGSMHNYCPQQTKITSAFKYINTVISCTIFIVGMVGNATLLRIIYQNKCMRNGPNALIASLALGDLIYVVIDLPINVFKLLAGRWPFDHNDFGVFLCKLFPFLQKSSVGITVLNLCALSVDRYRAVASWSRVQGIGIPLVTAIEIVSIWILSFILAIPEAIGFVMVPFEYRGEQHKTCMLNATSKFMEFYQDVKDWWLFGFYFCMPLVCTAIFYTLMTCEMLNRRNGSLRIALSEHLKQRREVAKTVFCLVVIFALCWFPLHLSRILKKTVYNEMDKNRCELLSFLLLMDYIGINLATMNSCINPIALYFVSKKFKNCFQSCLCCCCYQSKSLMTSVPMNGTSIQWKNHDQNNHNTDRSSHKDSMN
Note: assay procedure not described here.

| SMILES | AC50 [1] [µM] | AC50 [2] [µM] | AC50 [3] [µM] | AC50 [4] | AC50 [5] [µM] | AC50 [6] [µM] | AC50 (Endothelin-1 receptor) [µM] |
| --- | --- | --- | --- | --- | --- | --- | --- |
| N#Cc1ccc2c(c1)N(CCCN1CCC(O)CC1)c1ccccc1S2 [PERICIAZINE] | > 30 |  |  |  |  |  |  |
| OC[C@H]1O[C@@H](c2ccc(F)c(Cc3cc4ccccc4s3)c2)[C@H](O)[C@@H](O)[C@@H]1O [IPRAGLIFLOZIN] | > 30 | > 30 |  |  |  |  |  |
| CN1CCC(=C2c3ccccc3Sc3ccccc32)CC1 [PIMETHIXENE] | > 30 | > 30 |  |  |  |  |  |
| FC(F)(F)c1ccc(CNc2ccc(Cc3c[nH]c4ncc(Cl)cc34)cn2)cn1 [PEXIDARTINIB] | > 30 | > 30 |  |  |  |  |  |
| [H]/N=C(\N/C(=N/[H])Nc1ccc(Cl)cc1)NC(C)C [PROGUANIL] | > 30 | > 30 |  |  |  |  |  |
| CC(=O)Oc1cc(C(F)(F)F)ccc1C(=O)O [TRIFLUSAL] | > 30 | > 30 |  |  |  |  |  |
| N[C@@H](CS)C(=O)O [CYSTEINE] | > 30 | > 30 |  |  |  |  |  |
| CCn1cc(C(=O)O)c(=O)c2cc3c(cc21)OCO3 [OXOLINIC ACID] | > 30 | > 30 |  |  |  |  |  |
| CC(C)C[C@H](NC(=O)CNC(=O)c1cc(Cl)ccc1Cl)B(O)O [IXAZOMIB] | > 30 | > 30 |  |  |  |  |  |
| O=C(O)c1cc(/N=N/c2ccc(O)c(C(=O)O)c2)ccc1O [OLSALAZINE] | > 30 | > 30 |  |  |  |  |  |
| O=C1/C(=C2\Nc3ccc(S(=O)(=O)O)cc3C2=O)Nc2ccc(S(=O)(=O)O)cc21 [INDIGOTINDISULFONATE] | > 30 | > 30 |  |  |  |  |  |
| CC[C@H](c1ccc(O)cc1)[C@@H](CC)c1ccc(O)cc1 [HEXESTROL] | 22.8 | 25.9 |  |  |  |  |  |
| C/C=C/C/C=C/CCC(=O)[C@H]1O[C@H]1C(N)=O [CERULENIN] | > 30 | > 30 |  |  |  |  |  |
| Nc1ccc(C(=O)Oc2ccccc2)c(O)c1 [PHENYL AMINOSALICYLATE] | > 30 | > 30 |  |  |  |  |  |
| CCc1nc(C(N)=O)c(Nc2ccc(N3CCC(N4CCN(C)CC4)CC3)c(OC)c2)nc1NC1CCOCC1 [GILTERITINIB] | > 30 | > 30 |  |  |  |  |  |
| COc1c2ccoc2cc2oc(=O)ccc12 [BERGAPTEN] | > 30 | > 30 |  |  |  |  |  |
| Cc1onc(-c2ccccc2)c1-c1ccc(S(N)(=O)=O)cc1 [VALDECOXIB] |  | > 30 | > 10 | > 10 µM | > 30 | > 30 | > 30 |
| N[C@@H](CO)C(=O)O [SERINE] | > 30 | > 30 |  |  |  |  |  |

| SMILES | AC50 [1] [µM] | AC50 [2] [µM] | AC50 [3] [µM] | AC50 [4] | AC50 [5] [µM] | AC50 [6] [µM] | AC50 (Endothelin-1 receptor) [µM] |
| --- | --- | --- | --- | --- | --- | --- | --- |
| CN1CCCCC1CCN1c2ccccc2Sc2ccc([S+](C)[O-])cc21 (configuration not stated) [MESORIDAZINE] | > 30 | > 30 |  |  |  |  |  |
| Cc1onc(-c2ccccc2)c1C(=O)N[C@@H]1C(=O)N2[C@@H]1SC(C)(C)[C@@H]2C(=O)O [OXACILLIN] | > 30 | > 30 |  |  |  |  |  |
| CC(CN1CC(=O)NC(=O)C1)N1CC(=O)NC(=O)C1 (configuration not stated) [RAZOXANE] | > 30 | > 30 |  |  |  |  |  |
| CC(C)(O)CNc1nc(Nc2ccnc(C(F)(F)F)c2)nc(-c2cccc(C(F)(F)F)n2)n1 [ENASIDENIB] | > 30 | > 30 |  |  |  |  |  |
| CC(C)OC(=O)CCC/C=C\C[C@@H]1[C@@H](/C=C/C(F)(F)COc2ccccc2)[C@H](O)C[C@@H]1O [TAFLUPROST] | > 30 | > 30 |  |  |  |  |  |
| CNC(=O)Oc1cccc2ccccc12 [CARBARIL] | > 30 | > 30 |  |  |  |  |  |
| CCOC(=O)C1=C[C@@H](OC(CC)CC)[C@H](NC(C)=O)[C@@H](N)C1 [OSELTAMIVIR] | > 30 | > 30 |  |  |  |  |  |
| OC[C@H]1O[C@@H](c2ccc(Cl)c(Cc3ccc(O[C@H]4CCOC4)cc3)c2)[C@H](O)[C@@H](O)[C@@H]1O [EMPAGLIFLOZIN] | > 30 | > 30 |  |  |  |  |  |
| CC(C)Cc1ccc(C(C)C(=O)O)cc1 (configuration not stated) [IBUPROFEN] |  | > 30 | > 10 | > 10 µM | > 30 | > 30 | > 30 |
| Cc1ccccc1C(=O)Nc1ccc(C(=O)N2CCCC(N(C)C)c3ccccc32)cc1 (configuration not stated) [MOZAVAPTAN] | > 30 | > 30 |  |  |  |  |  |
| CC(C)c1nc(N(C)S(C)(=O)=O)nc(-c2ccc(F)cc2)c1/C=C/[C@@H](O)C[C@@H](O)CC(=O)O [ROSUVASTATIN] |  |  | > 30 | > 30 µM | > 30 | > 30 | > 30 |
| CC(C)N(CCC(C(N)=O)(c1ccccc1)c1ccccn1)C(C)C (configuration not stated) [DISOPYRAMIDE] |  |  | > 10 | > 10 µM | > 30 | > 30 | > 30 |
| CN(C)CC[C@@H](c1ccc(Cl)cc1)c1ccccn1 [DEXCHLORPHENIRAMINE] |  |  | 22 | > 30 µM | > 30 | 28 | > 30 |
| CC[C@H]1OC(=O)[C@H](C)C(=O)[C@H](C)[C@@H](O[C@@H]2O[C@H](C)C[C@H](N(C)C)[C@H]2O)[C@](C)(OC)C[C@@H](C)C(=O)[C@H](C)[C@H]2N(CCCCn3cnc(-c4cccnc4)c3)C(=O)O[C@]12C [TELITHROMYCIN] | > 30 | > 30 |  |  |  |  |  |
| N[C@@H](CC(=O)N1CCn2c(nnc2C(F)(F)F)C1)Cc1cc(F)c(F)cc1F [SITAGLIPTIN] |  |  | > 30 | > 30 µM | > 30 | > 30 | > 30 |
| C=CCN1CC[C@]23CCCC[C@H]2[C@H]1Cc1ccc(O)cc13 [LEVALLORPHAN] | > 30 | > 30 |  |  |  |  |  |
| C=CC[C@@H]1/C=C(\C)C[C@H](C)C[C@H](OC)[C@H]2O[C@@](O)(C(=O)C(=O)N3CCCC[C@H]3C(=O)O[C@H](/C(C)=C/[C@@H]3CC[C@@H](O)[C@H](OC)C3)[C@H](C)[C@@H](O)CC1=O)[C@H](C)C[C@@H]2OC [TACROLIMUS ANHYDROUS] |  |  | > 30 | 7.2 µM and > 10 µM | > 30 | > 30 | > 30 |
